Several values for one entry are separate records, joined by “and”; a condition that tells them apart may be missing. Identical values can stand only once. Like-named read-outs stand apart in the source and are kept apart here.
Biological target: T1, LSD1-HDAC1-CoREST complex (Homo sapiens, UniProt O60341)
T1 construct: full length native LSD1 (UniProt ID: O60341); made in house; host or cells: HEK 293F cells (co-transfection, pcDNA3 vectors)
Test: LSD1 HRP-coupled demethylase assay, SP2509/SP2577 analogues
Format: biochemical
Procedure: The analogues synthesised were then tested for their ability to inhibit LSD1 using purified LSD1-HDAC1-CoREST complex (Fig. 2B). We used an established fluorescent read out horseradish peroxidase (HRP) assay to monitor LSD1 enzymatic activity in the CoREST complex[8] (see ESI ^† for full details).
2. Supplementary Information: Biology
2.1. LSD-HDAC1-CoREST expression and purification
Lysis Buffer (Buffer A) Wash Buffer (Buffer B)
• 50 mM Tris/Cl pH 7.5 • 50 mM Tris/Cl pH 7.5
• 50 mM Potassium Acetate • 50 mM Potassium Acetate […]
Cleavage Buffer (Buffer C) Gel Filtration Buffer (Buffer D)
• 50 mM Tris/Cl pH 7.5 Filtered at vacuum.
• 50 mM Potassium Acetate • 50 mM Tris/Cl pH 7.5
• 5 % v/v Glycerol • 50 mM Potassium Acetate
• 0.5 mM tris(2- • 0.5 mM TCEP carboxyethyl)phosphine (TCEP)
The CoREST ternary complex was comprised of full length native LSD1 (UniProt ID: O60341), full length HDAC1 (UniProt ID: Q13547) and N-terminally truncated RCOR1 (86-485aa) (UniProt ID:
Q9UKL0). Protein constructs were cloned into pcDNA3 vector. The RCOR1 constructs contained an N-terminal (His)10(Flag)3 tag followed by a Tev protease cleavage site. The constructs for ternary complex were co-transfected into suspension-grow HEK 293F cells (Thermofisher Scientific) with polyethylenimine (PEI) (Sigma) and harvested after 48 hours. This section of the procedure was carried out as described previously in literature.11,12
Cell pellets from 1.2 L culture were defrosted, and buffer A (30 mL) was added. The solution was sonicated (Soniprep 150) in an beaker of ice using a 9 mm probe at 10 ampules; operated with 10 […]
2.2. SP2509/SP2577 analogues LSD1 HRP-coupled demethylase assay protocol The commercial reagents for the assay were HRP and Amplex® Ultrared, which are available to purchase from ThermoFisher (31490) and Invitrogen (10737474), respectively. HRP was made up to 8 mg/mL stock solution in 1xPBS buffer, divided into 10 µL aliquots, snap-frozen in liquid nitrogen and stored at -80 °C. Amplex® Ultrared was made up to 10 mM solution in DMSO, divided into 20 µL aliquots and wrapped in foil, away from light and stored at -20 °C. For each assay experiment, CoREST complex was diluted to 500 nM in assay buffer (20 mM HEPES pH 7.5 and 50 mM NaCl).
HRP was defrosted by diluting each aliquot in 90 µL 1xPBS solution, making a 0.8 mg/mL solution.
Amplex® Ultrared was made up to 200 µM in assay buffer. HRP and Amplex® Ultrared were pre-mixed before addition to the plate. H3K4Me2 substrate (4 mM in deionised water) was diluted to 300 µM in assay buffer. All stocks were stored on ice during assay preparation.
The assay was carried out using a ‘black well’ 96 well plate (Corning no. 3915) in a reaction volume of 100 μL. The final concentrations in the assay were as follows: 50 nM CoREST complex, 10 μM Amplex® UltraRed, 0.04 mg/mL HRP and 15 μM H3K4Me2 peptide substrate. The final DMSO concentration in each well was 1.1 %. Three wells of each experiments were designated ‘background controls’ and contained 85 μL assay buffer, premixed Amplex® UltraRed and HRP (10 µL) and H3K4Me peptide substrate (300 μM, 5 µL).
A stock solution of inhibitor (1 -5 mM in DMSO) was subjected to an inhibitor dilution series, in Eppendorf tubes, in 100 % DMSO. Each new inhibitor stock (4 μL) was diluted in assay buffer (1 in 75) within a new Eppendorf set with assay buffer (20 mM HEPES pH 7.5 and 50 m M NaCl), ensuring the percentage of DMSO was consistent throughout the series. To each well of interest, Inhibitor in assay buffer (75 μL) was added, and CoREST complex (500 nM, 10 µL) was added thereafter. The plate was placed on a rocker and pre -incubated for 30 mins. To each well, premixed Amplex® UltraRed and HRP (10 µL) was added before H3K4Me 2 peptide substrate in assay buffer solution (300 μM, 5 µL) was added to the wall of the plate. The plate was covered in foil and spun down for one minute before being placed in the plate reader. The final percentage concentration of DMSO in […]

## C/C(=N\NC(=O)c1cccc(S(=O)(=O)N2CCOCC2)c1)c1cc(Cl)ccc1O [SP2509, reference compound]
LSD1 enzymatic activity, complex 50 nM, HRP assay, SP2509 value is mean of three sets, read-out: LSD1-HDAC1-CoREST IC50
  IC50: 54.2 nM
Per parallel set, each set with SP2509 as reference standard, read-out: IC50 from dose response curves (Figure S1)
  IC50: 52 nM and 56 nM and 55 nM
